Measurements as given in ChEMBL document CHEMBL3351686, “Facile and diastereoselective synthesis of 3,2'-spiropyrrolidine-oxindoles derivatives, their molecular docking and antiproliferative activities” (2015).
In brackets after ≈: the same amount, converted by molar mass.

Key:
[1] = tested on: Shigella flexneri; assay: Antibacterial activity against Shigella flexneri MTCC 1457 assessed as zone of inhibition at 1 mg/disc after 24 hrs by disc diffusion method; format: functional
[2] = tested on: Staphylococcus aureus; assay: Antibacterial activity against Staphylococcus aureus MTCC 96 assessed as zone of inhibition at 1 mg/disc after 24 hrs by disc diffusion method; format: functional
[3] = tested on: Proteus vulgaris; assay: Antibacterial activity against Proteus vulgaris MTCC 1771 assessed as zone of inhibition at 1 mg/disc after 24 hrs by disc diffusion method; format: functional
[4] = tested on: Proteus vulgaris; assay: Antibacterial activity against Proteus vulgaris MTCC 1771 assessed as inhibition of visual growth after 24 hrs; format: functional; settings: MTCC 1771, 24 h
[5] = tested on: Candida albicans; assay: Antifungal activity against Candida albicans MTCC 227 assessed as zone of inhibition at 1 mg/disc after 48 hrs by disc diffusion method; format: functional
[6] = tested on: Micrococcus luteus; assay: Antibacterial activity against Micrococcus luteus MTCC 106 assessed as zone of inhibition at 1 mg/disc after 24 hrs by disc diffusion method; format: functional
[7] = tested on: Malassezia pachydermatis; assay: Antifungal activity against Malassezia pachydermatis assessed as zone of inhibition at 1 mg/disc after 48 hrs by disc diffusion method; format: functional
[8] = tested on: Staphylococcus aureus; assay: Antibacterial activity against Staphylococcus aureus MTCC 96 assessed as inhibition of visual growth after 24 hrs; format: functional; settings: MTCC 96, 24 h
[9] = tested on: Staphylococcus epidermidis; assay: Antibacterial activity against Staphylococcus epidermidis MTCC 3615 assessed as inhibition of visual growth after 24 hrs; format: functional; settings: MTCC 3615, 24 h
[10] = tested on: Salmonella typhimurium; assay: Antibacterial activity against Salmonella typhimurium MTCC 1251 assessed as inhibition of visual growth after 24 hrs; format: functional, Salmonella enterica subsp. enterica serovar Typhimurium; settings: Salmonella enterica, MTCC 1251, 24 h
[11] = tested on: Klebsiella pneumoniae; assay: Antibacterial activity against Klebsiella pneumoniae MTCC 109 assessed as inhibition of visual growth after 24 hrs; format: functional; settings: MTCC 109, 24 h
[12] = tested on: Klebsiella pneumoniae; assay: Antibacterial activity against Klebsiella pneumoniae MTCC 109 assessed as zone of inhibition at 1 mg/disc after 24 hrs by disc diffusion method; format: functional
[13] = tested on: Klebsiella aerogenes; assay: Antibacterial activity against Enterobacter aerogenes MTCC 111 assessed as zone of inhibition at 1 mg/disc after 24 hrs by disc diffusion method; format: functional
[14] = tested on: Klebsiella aerogenes; assay: Antibacterial activity against Enterobacter aerogenes MTCC 111 assessed as inhibition of visual growth after 24 hrs; format: functional; settings: MTCC 111, 24 h
[15] = tested on: Staphylococcus aureus; assay: Antibacterial activity against methicillin-resistant Staphylococcus aureus assessed as inhibition of visual growth after 24 hrs; format: functional
[16] = tested on: Salmonella typhimurium; assay: Antibacterial activity against Salmonella typhimurium MTCC 1251 assessed as zone of inhibition at 1 mg/disc after 24 hrs by disc diffusion method; format: functional, Salmonella enterica subsp. enterica serovar Typhimurium
[17] = tested on: Micrococcus luteus; assay: Antibacterial activity against Micrococcus luteus MTCC 106 assessed as inhibition of visual growth after 24 hrs; format: functional; settings: MTCC 106, 24 h
[18] = tested on: Staphylococcus aureus; assay: Antibacterial activity against methicillin-resistant Staphylococcus aureus assessed as zone of inhibition at 1 mg/disc after 24 hrs by disc diffusion method; format: functional
[19] = tested on: Staphylococcus epidermidis; assay: Antibacterial activity against Staphylococcus epidermidis MTCC 3615 assessed as zone of inhibition at 1 mg/disc after 24 hrs by disc diffusion method; format: functional
[20] = tested on: Shigella flexneri; assay: Antibacterial activity against Shigella flexneri MTCC 1457 assessed as inhibition of visual growth after 24 hrs; format: functional; settings: MTCC 1457, 24 h
[21] = tested on: Candida albicans; assay: Antifungal activity against Candida albicans MTCC 227 assessed as inhibition of visual growth after 48 to 72 hrs; format: functional
[22] = tested on: Malassezia pachydermatis; assay: Antifungal activity against Malassezia pachydermatis assessed as inhibition of visual growth after 48 to 72 hrs; format: functional

C#CCN1C(=O)[C@]2(c3ccccc31)[C@H](c1cn(-c3ccccc3)nc1-c1ccccc1)[C@@](C#N)(C(=O)c1c[nH]c3ccccc13)C1CCCN12 (some centres not stated)
inhibition zone (IZ) [1]: 8 mm
inhibition zone (IZ) [2]: 10 mm
inhibition zone (IZ) [3]: 13 mm
MIC [4]: 250 µg/mL (≈ 383 µM)
inhibition zone (IZ) [5]: 10 mm
inhibition zone (IZ) [6]: 10 mm
inhibition zone (IZ) [7]: 9 mm
MIC [8]: 500 µg/mL (≈ 766 µM)
MIC [9]: 125 µg/mL (≈ 191 µM)
MIC [10]: 125 µg/mL (≈ 191 µM)
MIC [11]: 250 µg/mL (≈ 383 µM)
inhibition zone (IZ) [12]: 12 mm
inhibition zone (IZ) [13]: 12 mm
MIC [14]: 250 µg/mL (≈ 383 µM)
MIC [15]: 250 µg/mL (≈ 383 µM)
inhibition zone (IZ) [16]: 10 mm
MIC [17]: 500 µg/mL (≈ 766 µM)
inhibition zone (IZ) [18]: 8 mm
inhibition zone (IZ) [19]: 11 mm
MIC [20]: 500 µg/mL (≈ 766 µM)

N#C[C@]1(C(=O)c2c[nH]c3ccccc23)C2CSCN2[C@]2(C(=O)N(Cc3ccccc3)c3ccccc32)[C@@H]1c1cn(-c2ccccc2)nc1-c1ccccc1 (some centres not stated)
inhibition zone (IZ) [3]: 10 mm
MIC [4]: 500 µg/mL (≈ 692 µM)
MIC [8]: 62.5 µg/mL (≈ 86.5 µM)
MIC [9]: 125 µg/mL (≈ 173 µM)
MIC [10]: 250 µg/mL (≈ 346 µM)
MIC [11]: 250 µg/mL (≈ 346 µM)
MIC [14]: 250 µg/mL (≈ 346 µM)
MIC [21]: 500 µg/mL (≈ 692 µM)
MIC [15]: 500 µg/mL (≈ 692 µM)
MIC [17]: 250 µg/mL (≈ 346 µM)
MIC [20]: 500 µg/mL (≈ 692 µM)
MIC [22]: 500 µg/mL (≈ 692 µM)

CN1C(=O)[C@]2(c3ccccc31)[C@H](c1cn(-c3ccccc3)nc1-c1ccccc1)[C@@](C#N)(C(=O)c1c[nH]c3ccccc13)C1CCCN12 (some centres not stated)
inhibition zone (IZ) [1]: 9 mm
inhibition zone (IZ) [2]: 9 mm
inhibition zone (IZ) [3]: 12 mm
MIC [4]: 250 µg/mL (≈ 398 µM)
inhibition zone (IZ) [6]: 8 mm
MIC [8]: 250 µg/mL (≈ 398 µM)
MIC [9]: 250 µg/mL (≈ 398 µM)
MIC [10]: 500 µg/mL (≈ 795 µM)
MIC [11]: 500 µg/mL (≈ 795 µM)
inhibition zone (IZ) [12]: 11 mm
inhibition zone (IZ) [13]: 10 mm
MIC [14]: 250 µg/mL (≈ 398 µM)
MIC [15]: 125 µg/mL (≈ 199 µM)
inhibition zone (IZ) [16]: 13 mm
MIC [17]: 500 µg/mL (≈ 795 µM)
inhibition zone (IZ) [18]: 10 mm
inhibition zone (IZ) [19]: 12 mm
MIC [20]: 250 µg/mL (≈ 398 µM)

C=CCN1C(=O)[C@]2(c3ccccc31)[C@H](c1cn(-c3ccccc3)nc1-c1ccccc1)[C@@](C#N)(C(=O)c1c[nH]c3ccccc13)C1CCCN12 (some centres not stated)
inhibition zone (IZ) [3]: 10 mm
MIC [4]: 250 µg/mL (≈ 382 µM)
MIC [8]: 125 µg/mL (≈ 191 µM)
MIC [9]: 125 µg/mL (≈ 191 µM)
MIC [10]: 500 µg/mL (≈ 764 µM)
MIC [11]: 500 µg/mL (≈ 764 µM)
inhibition zone (IZ) [12]: 9 mm
MIC [14]: 250 µg/mL (≈ 382 µM)
MIC [21]: 250 µg/mL (≈ 382 µM)
MIC [15]: 250 µg/mL (≈ 382 µM)
inhibition zone (IZ) [16]: 10 mm
MIC [17]: 250 µg/mL (≈ 382 µM)
MIC [20]: 250 µg/mL (≈ 382 µM)
MIC [22]: 500 µg/mL (≈ 764 µM)

CN1C[C@](C#N)(C(=O)c2c[nH]c3ccccc23)[C@@H](c2cn(-c3ccccc3)nc2-c2ccccc2)[C@@]12C(=O)Nc1ccc([N+](=O)[O-])cc12
inhibition zone (IZ) [1]: 20 mm
inhibition zone (IZ) [2]: 19 mm
inhibition zone (IZ) [3]: 14 mm
MIC [4]: 250 µg/mL (≈ 395 µM)
inhibition zone (IZ) [5]: 13 mm
inhibition zone (IZ) [6]: 18 mm
inhibition zone (IZ) [7]: 8 mm
MIC [8]: 250 µg/mL (≈ 395 µM)
MIC [9]: 500 µg/mL (≈ 789 µM)
MIC [10]: 500 µg/mL (≈ 789 µM)
MIC [11]: 500 µg/mL (≈ 789 µM)
inhibition zone (IZ) [12]: 17 mm
inhibition zone (IZ) [13]: 15 mm
MIC [14]: 500 µg/mL (≈ 789 µM)
MIC [21]: 250 µg/mL (≈ 395 µM)
MIC [15]: 125 µg/mL (≈ 197 µM)
inhibition zone (IZ) [16]: 12 mm
MIC [17]: 250 µg/mL (≈ 395 µM)
inhibition zone (IZ) [18]: 18 mm
inhibition zone (IZ) [19]: 15 mm
MIC [22]: 500 µg/mL (≈ 789 µM)

CCCCN1C(=O)[C@]2(c3ccccc31)[C@H](c1cn(-c3ccccc3)nc1-c1ccccc1)[C@@](C#N)(C(=O)c1c[nH]c3ccccc13)C1CSCN12 (some centres not stated)
inhibition zone (IZ) [2]: 8 mm
MIC [4]: 500 µg/mL (≈ 726 µM)
inhibition zone (IZ) [6]: 10 mm
MIC [8]: 250 µg/mL (≈ 363 µM)
MIC [9]: 250 µg/mL (≈ 363 µM)
MIC [10]: 250 µg/mL (≈ 363 µM)
MIC [11]: 500 µg/mL (≈ 726 µM)
inhibition zone (IZ) [12]: 9 mm
inhibition zone (IZ) [13]: 9 mm
MIC [14]: 500 µg/mL (≈ 726 µM)
MIC [21]: 125 µg/mL (≈ 181 µM)
MIC [15]: 500 µg/mL (≈ 726 µM)
inhibition zone (IZ) [16]: 9 mm
MIC [17]: 250 µg/mL (≈ 363 µM)
inhibition zone (IZ) [19]: 10 mm
MIC [20]: 500 µg/mL (≈ 726 µM)
MIC [22]: 125 µg/mL (≈ 181 µM)
